{
  "source": "paper PMC3482425",
  "about": "(Journal of medicinal chemistry, 2012)",
  "key": {"LSD1": {"system": "LSD1", "conditions": "read-out: IC50 (LSD1 inhibitor); cited from earlier work"}, "[1]": {"system": "SFRP2 in Calu-6 anaplastic epithelial lung carcinoma cells", "assay": "Re-expression of SFRP2 in Calu-6 cells", "assay_type": "cell-based, human", "conditions": "24 or 48 hours"}, "[2]": {"system": "global H3K4me2 levels in Calu-6 human lung adenocarcinoma cells", "assay": "cells", "conditions": "Calu-6, 48 h, read-out: H3K4me2 Fold Increase (48 h), 10 μM, Calu-6 cells"}, "[3]": {"system": "H3K4me1 levels in Calu-6 human lung adenocarcinoma cell line", "assay": "Global H3K4me1 levels in Calu-6 cells", "assay_type": "cell-based", "conditions": "at both 24 and 48 hours"}, "[4]": {"system": "global H3K4me2 levels in Calu-6 human lung adenocarcinoma cells", "conditions": "time point not stated"}, "[5]": {"system": "HCAD in Calu-6 anaplastic epithelial lung carcinoma cells", "assay": "Re-expression of HCAD in Calu-6 cells", "assay_type": "cell-based, human", "conditions": "10 μM"}},
  "data": [
    {"molecule": "N[C@H]1C[C@@H]1c1cccc(OCC[C@H](NC(=O)c2ccccc2)C(=O)NCc2ccccc2)c1", "note": "[(1S, 2R)-NCL-1]", "values": [
      {"measurement": "IC50", "setting": "LSD1", "result": "[…]"}
    ]},
    {"molecule": "N=C(N)NN", "note": "[Aminoguanidine]", "values": [
      {"measurement": "effect on SFRP2 levels", "setting": "[1]; 1 mM", "result": "no effect"}
    ]},
    {"molecule": "N=C(NCCCNCCCCCCCNCCCNC(=N)NC(=N)NCCC(c1ccccc1)c1ccccc1)NC(=N)NCCC(c1ccccc1)c1ccccc1", "note": "[Compound 2d, (bis)-3,3-(diphenyl)propylbiguanide, reference compound]", "values": [
      {"measurement": "fold induction at 10 µM", "setting": "[2]", "result": 5}
    ]},
    {"molecule": "Cl.N=C(N)SCCN1C(=O)c2ccccc2C1=O", "note": "[Compound 5, 2-[N-(phthalimido)]ethyl carbamimidothioate hydrochloride]", "values": [
      {"measurement": "Increases in H3K4me1 levels", "setting": "[3]", "result": "unremarkable"}
    ]},
    {"molecule": "Cl.Cl.NCCNc1c([N+](=O)[O-])cc(C(F)(F)F)cc1[N+](=O)[O-]", "note": "[Compound 6]", "values": [
      {"measurement": "Increases in H3K4me1 levels", "setting": "[3]", "result": "unremarkable"},
      {"measurement": "changes in H3K4 / lysine methylation in the Calu-6 cell line", "setting": "[4]", "result": "no effect"}
    ]},
    {"molecule": "Cl.N=C(N)SCCCN1C(=O)c2ccccc2C1=O", "note": "[Compound 8]", "values": [
      {"measurement": "Increases in H3K4me1 levels", "setting": "[3]", "result": "unremarkable"}
    ]},
    {"molecule": "Cl.N=C(N)SCCCCN1C(=O)c2ccccc2C1=O", "note": "[Compound 9]", "values": [
      {"measurement": "Increases in H3K4me1 levels", "setting": "[3]", "result": "unremarkable"}
    ]},
    {"molecule": "CCNCCCCNCCCCNCCCCNCCCCNC/C=C/CNCCCCNCCCCNCCCCNCCCCNCC", "note": "[PG11144]", "values": [
      {"measurement": "effect on SFRP2 levels", "setting": "[1]; 5 μM", "result": "no effect"},
      {"measurement": "fold increase in HCAD expression, 24 hours", "setting": "[5]", "result": 1.47, "unit": "fold"}
    ]}
  ]
}
